According to the supplement of paper PMC10307832:

What was measured:
Assay in all cases: relative viability (nuclei count vs DMSO), 5 days (fraction); higher = more cells survive
[1] = system: NCI-H1993
Outline: (§1)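 Medians of duplicate plates are given as relative viability. That measure is the nuclei count in treated wells divided by the count in vehicle wells. Counts were taken on 4× images of lung cancer cell lines in 1536-well plates, 5 days after pin-tool dosing the day after seeding with one drug alone or a fixed anchor-drug dose plus five library-drug doses (not always all listed) in √10 steps.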

[2] = system: EMC-BAC-2
Outline: as §1

[3] = system: EPLC-272H
Outline: as §1

[4] = system: HCC-44
Outline: as §1

[5] = system: NCI-H2087
Outline: as §1

[6] = system: NCI-H23
Outline: as §1

[7] = system: LCLC-97TM1
Outline: as §1

[8] = system: NCI-H2405
Outline: as §1

[9] = system: NCI-H2085
Outline: as §1

[10] = system: NCI-H1355
Outline: as §1

[11] = system: SK-MES-1
Outline: as §1

[12] = system: H3255
Outline: as §1

[13] = system: ChaGo-K-1
Outline: as §1

[14] = system: NCI-H322M
Outline: as §1

[15] = system: NCI-H520
Outline: as §1

[16] = system: LCLC-103H
Outline: as §1

[17] = system: UMC-11
Outline: as §1

[18] = system: NCI-H650
Outline: as §1

[19] = system: NCI-H1944
Outline: as §1

[20] = system: NCI-H1651
Outline: as §1

[21] = system: HCC-827
Outline: as §1

[22] = system: NCI-H1563
Outline: as §1

Clc1ccc(Nc2nnc(Cc3ccncc3)c3ccccc23)cc1 [Vatalanib] + C[C@@H](Oc1cc(-c2cnn(C3CCNCC3)c2)cnc1N)c1c(Cl)ccc(F)c1Cl [Crizotinib] (partner 1 µM)
relative viability ([1]; first compound 0.04 µM): 0.948
relative viability ([1]; first compound 0.1265 µM): 0.853
relative viability ([1]; first compound 0.4 µM): 0.935
relative viability ([1]; first compound 1.265 µM): 0.805
relative viability ([1]; first compound 4 µM): 0.846
relative viability ([2]; first compound 0.04 µM): 0.703
relative viability ([2]; first compound 0.1265 µM): 0.76
relative viability ([2]; first compound 0.4 µM): 0.75
relative viability ([2]; first compound 1.265 µM): 0.752
relative viability ([2]; first compound 4 µM): 0.742
relative viability ([3]; first compound 0.04 µM): 0.836
relative viability ([3]; first compound 0.1265 µM): 0.779
relative viability ([3]; first compound 0.4 µM): 0.965
relative viability ([3]; first compound 1.265 µM): 0.919
relative viability ([3]; first compound 4 µM): 0.955
relative viability ([4]; first compound 0.04 µM): 0.836
relative viability ([4]; first compound 0.1265 µM): 0.842
relative viability ([4]; first compound 0.4 µM): 0.804
relative viability ([4]; first compound 1.265 µM): 0.735
relative viability ([4]; first compound 4 µM): 0.701
relative viability ([5]; first compound 0.04 µM): 0.89
relative viability ([5]; first compound 0.1265 µM): 1.07
relative viability ([5]; first compound 0.4 µM): 0.828
relative viability ([5]; first compound 1.265 µM): 0.826
relative viability ([5]; first compound 4 µM): 0.89
relative viability ([6]; first compound 0.04 µM): 0.505
relative viability ([6]; first compound 0.1265 µM): 0.49
relative viability ([6]; first compound 0.4 µM): 0.491
relative viability ([6]; first compound 1.265 µM): 0.622
relative viability ([6]; first compound 4 µM): 0.564
relative viability ([7]; first compound 0.04 µM): 0.308
relative viability ([7]; first compound 0.1265 µM): 0.312
relative viability ([7]; first compound 0.4 µM): 0.447
relative viability ([7]; first compound 1.265 µM): 0.386
relative viability ([7]; first compound 4 µM): 0.365
relative viability ([8]; first compound 0.04 µM): 0.896
relative viability ([8]; first compound 0.1265 µM): 0.79
relative viability ([8]; first compound 0.4 µM): 0.932
relative viability ([8]; first compound 1.265 µM): 0.816
relative viability ([8]; first compound 4 µM): 0.82
relative viability ([9]; first compound 0.04 µM): 0.754
relative viability ([9]; first compound 0.1265 µM): 0.779
relative viability ([9]; first compound 0.4 µM): 1.04
relative viability ([9]; first compound 1.265 µM): 0.787
relative viability ([9]; first compound 4 µM): 0.888
relative viability ([10]; first compound 0.04 µM): 1.05
relative viability ([10]; first compound 0.1265 µM): 1.08
relative viability ([10]; first compound 0.4 µM): 1.13
relative viability ([10]; first compound 1.265 µM): 0.886
relative viability ([10]; first compound 4 µM): 0.953
relative viability ([11]; first compound 0.04 µM): 1.01
relative viability ([11]; first compound 0.1265 µM): 0.808
relative viability ([11]; first compound 0.4 µM): 1.14
relative viability ([11]; first compound 1.265 µM): 0.927
relative viability ([11]; first compound 4 µM): 0.925
relative viability ([12]; first compound 0.04 µM): 0.986
relative viability ([12]; first compound 0.1265 µM): 0.878
relative viability ([12]; first compound 0.4 µM): 0.718
relative viability ([12]; first compound 1.265 µM): 0.802
relative viability ([12]; first compound 4 µM): 0.85
relative viability ([13]; first compound 0.04 µM): 1.18
relative viability ([13]; first compound 0.1265 µM): 1.14
relative viability ([13]; first compound 1.265 µM): 1.1
relative viability ([13]; first compound 4 µM): 1.09
relative viability ([14]; first compound 0.04 µM): 1.02
relative viability ([14]; first compound 0.1265 µM): 0.891
relative viability ([14]; first compound 0.4 µM): 0.958
relative viability ([14]; first compound 1.265 µM): 0.858
relative viability ([14]; first compound 4 µM): 0.939
relative viability ([15]; first compound 0.04 µM): 0.667
relative viability ([15]; first compound 0.1265 µM): 0.849
relative viability ([15]; first compound 0.4 µM): 0.824
relative viability ([15]; first compound 1.265 µM): 0.614
relative viability ([15]; first compound 4 µM): 0.696
relative viability ([16]; first compound 0.04 µM): 1.04
relative viability ([16]; first compound 0.1265 µM): 1.04
relative viability ([16]; first compound 0.4 µM): 1.15
relative viability ([16]; first compound 1.265 µM): 0.999
relative viability ([16]; first compound 4 µM): 1.11
relative viability ([17]; first compound 0.04 µM): 0.616
relative viability ([17]; first compound 0.1265 µM): 0.585
relative viability ([17]; first compound 0.4 µM): 0.719
relative viability ([17]; first compound 1.265 µM): 0.586
relative viability ([17]; first compound 4 µM): 0.629
relative viability ([18]; first compound 0.04 µM): 0.726
relative viability ([18]; first compound 0.1265 µM): 0.627
relative viability ([18]; first compound 1.265 µM): 0.641
relative viability ([18]; first compound 4 µM): 0.606
relative viability ([19]; first compound 0.04 µM): 1.13
relative viability ([19]; first compound 0.1265 µM): 0.986
relative viability ([19]; first compound 0.4 µM): 1.23
relative viability ([19]; first compound 1.265 µM): 1.1
relative viability ([19]; first compound 4 µM): 1.05
relative viability ([20]; first compound 0.04 µM): 0.865
relative viability ([20]; first compound 0.1265 µM): 0.839
relative viability ([20]; first compound 0.4 µM): 0.858
relative viability ([20]; first compound 1.265 µM): 0.86
relative viability ([20]; first compound 4 µM): 0.925
relative viability ([21]; first compound 0.04 µM): 0.845
relative viability ([21]; first compound 0.1265 µM): 0.936
relative viability ([21]; first compound 0.4 µM): 0.943
relative viability ([21]; first compound 1.265 µM): 0.894
relative viability ([21]; first compound 4 µM): 0.853
relative viability ([22]; first compound 0.04 µM): 0.848
relative viability ([22]; first compound 0.1265 µM): 0.754
relative viability ([22]; first compound 0.4 µM): 0.961
relative viability ([22]; first compound 1.265 µM): 0.818
relative viability ([22]; first compound 4 µM): 0.859
